Consider 22 compounds from US20260258035A1, “FIVE-MEMBERED AND SIX-MEMBERED NITROGEN-CONTAINING COMPOUND, AND INTERMEDIATE, PREPARATION METHOD AND USE THEREOF” (HANGZHOU SYNRX THERAPEUTICS BIOMEDICAL TECHNOLOGY CO., LTD., priority 2022, published 2026).

One test concerns the target PARG (Homo sapiens, UniProt Q86W56). The experiment in a line: Biochemical assay (PARG, TFMU-ADPr substrate).
The next test concerns HCC1806. The test can be described thus: Cell viability assay (CellTiter-Glo). Format: cell-based, Human. The note with it: HCC1806, 7 days, CellTiter-Glo, read-out: IC50 (nM) in cell viability assay.
Setting [1] is: 4 nM PARG, 66.2 uM TFMU-ADPr, 3 min at room temperature.

Each structure is given as a SMILES string. Where two headings read alike, the source gives them in different places.

What is called IC50 is the concentration that gives 50% inhibition.

Chain of PARG (Q86W56 whole entry): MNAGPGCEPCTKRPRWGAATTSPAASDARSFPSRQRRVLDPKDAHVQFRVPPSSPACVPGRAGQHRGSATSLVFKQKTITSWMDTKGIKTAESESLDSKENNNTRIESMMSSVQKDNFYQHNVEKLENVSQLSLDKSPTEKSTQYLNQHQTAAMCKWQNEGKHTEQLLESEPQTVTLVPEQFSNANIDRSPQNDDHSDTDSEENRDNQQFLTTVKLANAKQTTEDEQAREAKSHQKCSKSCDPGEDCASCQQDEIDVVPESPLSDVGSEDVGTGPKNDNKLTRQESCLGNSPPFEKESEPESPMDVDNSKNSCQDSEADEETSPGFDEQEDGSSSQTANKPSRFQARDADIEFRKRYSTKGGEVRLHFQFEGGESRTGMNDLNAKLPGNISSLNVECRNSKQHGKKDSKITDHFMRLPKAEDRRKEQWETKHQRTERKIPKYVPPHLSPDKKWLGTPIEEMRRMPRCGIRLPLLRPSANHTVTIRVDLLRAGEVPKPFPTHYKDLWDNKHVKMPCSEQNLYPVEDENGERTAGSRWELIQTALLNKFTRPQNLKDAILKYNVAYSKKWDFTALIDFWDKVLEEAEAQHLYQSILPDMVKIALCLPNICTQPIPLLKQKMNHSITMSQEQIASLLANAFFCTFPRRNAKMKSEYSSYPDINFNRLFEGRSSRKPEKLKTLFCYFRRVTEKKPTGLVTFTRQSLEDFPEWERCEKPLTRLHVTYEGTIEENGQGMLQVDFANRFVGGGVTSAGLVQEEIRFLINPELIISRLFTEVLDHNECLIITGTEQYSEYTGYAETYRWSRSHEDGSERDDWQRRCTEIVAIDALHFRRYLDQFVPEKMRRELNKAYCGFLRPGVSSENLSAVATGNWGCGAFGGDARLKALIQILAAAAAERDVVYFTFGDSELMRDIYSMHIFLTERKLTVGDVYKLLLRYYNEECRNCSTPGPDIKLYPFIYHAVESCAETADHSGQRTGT

For `C[C@@H]1CN(c2cc(S(=O)(=O)NC3(C)CC3)cn3c(-c4nnc(C(F)F)s4)ncc23)CCN1C(=O)C1CNC1` [Example 315, (R)-8-(4-(azetidine-3-carbonyl)-3-methylpiperazin-1-yl)-3-(5-(difluoromethyl)-1,3,4-thiadiazol-2-yl)-N-(1-methylcyclopropyl)imidazo[1,5-a]pyridine-6-sulfonamide], the IC50 on PARG (PARG, TFMU-ADPr substrate) is 0.96 nM; in the test with HCC1806 (Homo sapiens, HCC1806, 168 h), 5700 nM.
Take `COC1(C(=O)N2CCN(c3cc(S(=O)(=O)NC4(C)CC4)cn4c(-c5nnc(C(F)(F)F)s5)ncc34)CC2)CCC1` [Example 327, 8-(4-(1-methoxycyclobutane-1-carbonyl)piperazin-1-yl)-N-(1-methylcyclopropyl)-3-(5-(trifluoromethyl)-1,3,4-thiadiazol-2-yl)imidazo[1,5-a]pyridine-6-sulfonamide]: the IC50 on PARG (PARG, TFMU-ADPr substrate) came to 0.15 nM; with HCC1806 (Homo sapiens, HCC1806, 168 h), 6.13 nM.
On to `CC1(NS(=O)(=O)c2cc(N3CCN4C(=O)COCC4C3)c3cnc(-c4nnc(C(F)(F)F)s4)n3c2)COC1` (stereo not drawn) [Example 363, N-(3-methyloxetan-3-yl)-8-(4-oxohexahydropyrazino[2,1-c][1,4]oxazin-8(1H)-yl)-3-(5-(trifluoromethyl)-1,3,4-thiadiazol-2-yl)imidazo[1,5-a]pyridine-6-sulfonamide], for which the IC50 at PARG (PARG, TFMU-ADPr substrate) was 1.71 nM; in the test on HCC1806 (Homo sapiens, HCC1806, 168 h), 63 nM.
As for `CN1CC(C(=O)N2CCN(c3cc(S(=O)(=O)NC4(C#N)CC4)cn4c(-c5nnc(C(F)(F)F)s5)ncc34)CC2)C1` [Example 252, N-(1-cyanocyclopropyl)-8-(4-(1-methylazetidine-3-carbonyl)piperazin-1-yl)-3-(5-(trifluoromethyl)-1,3,4-thiadiazol-2-yl)imidazo[1,5-a]pyridine-6-sulfonamide], the IC50 on PARG (PARG, TFMU-ADPr substrate) came to 16.6 nM; in the test on HCC1806 (Homo sapiens, HCC1806, 168 h) it was 2000 nM.
As to `N#CC1(NS(=O)(=O)c2cc(N3CC[C@H](O)C3)c3cnc(-c4nnc(C(F)(F)F)s4)n3c2)CC1` [Example 239, (S)-N-(1-cyanocyclopropyl)-8-(3-hydroxypyrrolidin-1-yl)-3-(5-(trifluoromethyl)-1,3,4-thiadiazol-2-yl)imidazo[1,5-a]pyridine-6-sulfonamide], the IC50 on PARG (PARG, TFMU-ADPr substrate) came out at 380 nM; in the test with HCC1806 (Homo sapiens, HCC1806, 168 h), 9790 nM.
Take `C[C@H]1CN(c2cc(S(=O)(=O)NC3(C)COC3)cn3c(-c4nnc(C(F)(F)F)s4)cnc23)C[C@H](C)N1` [Example 189, 8-((3S,5S)-3,5-dimethylpiperazin-1-yl)-N-(3-methyloxetan-3-yl)-3-(5-(trifluoromethyl)-1,3,4-thiadiazol-2-yl)imidazo[1,2-a]pyridine-6-sulfonamide]: the IC50 against PARG (PARG, TFMU-ADPr substrate) came to 3.55 nM; in the test on HCC1806 (Homo sapiens, HCC1806, 168 h), 112 nM.
On to `CC(C)(O)C1CCN(c2cc(S(=O)(=O)NC3(CF)CC3)cn3c(-c4nnc(C(F)F)s4)nnc23)CC1` [Example 109, 3-(5-(difluoromethyl)-1,3,4-thiadiazol-2-yl)-N-(1-(fluoromethyl)cyclopropyl)-8-(4-(2-hydroxypropan-2-yl)piperidin-1-yl)-[1,2,4]triazolo[4,3-a]pyridine-6-sulfonamide], for which the IC50 against PARG (setting [1]) is less than 100 nM; on PARG (PARG, TFMU-ADPr substrate), 30.5 nM; with HCC1806, 7000 nM; with HCC1806 (Homo sapiens, HCC1806, 168 h), 5000 to 30000 nM.
Turning to `CN1CCC[C@@H]1C(=O)N1CCN(c2cc(S(=O)(=O)NC3(C)CC3)cn3c(-c4nnc(C(F)(F)F)s4)ncc23)CC1` [Example 325, 8-(4-(methyl-D-prolyl)piperazin-1-yl)-N-(1-methylcyclopropyl)-3-(5-(trifluoromethyl)-1,3,4-thiadiazol-2-yl)imidazo[1,5-a]pyridine-6-sulfonamide], the IC50 at PARG (PARG, TFMU-ADPr substrate) came to 4.46 nM; in the test with HCC1806 (Homo sapiens, HCC1806, 168 h), 120 nM.
As to `Cn1nccc1C1CCC(c2cc(S(=O)(=O)NC3(C#N)CC3)cn3c(-c4nnc(C(F)F)s4)nnc23)C1` (stereo not drawn) [Example 378, N-(1-cyanocyclopropyl)-3-(5-(difluoromethyl)-1,3,4-thiadiazol-2-yl)-8-(3-(1-methyl-1H-pyrazol-5-yl)cyclopentyl)-[1,2,4]triazolo[4,3-a]pyridine-6-sulfonamide], the IC50 was less than 100 nM against PARG (setting [1]); 27.7 nM against PARG (PARG, TFMU-ADPr substrate); 6000 nM in the test with HCC1806; 5000 to 30000 nM in the test on HCC1806 (Homo sapiens, HCC1806, 168 h).
For `CC1(NS(=O)(=O)c2cc(N3CCOCC3)c3cnc(-c4nnc(C(F)F)s4)n3c2)CC1` [Example 347, 3-(5-(difluoromethyl)-1,3,4-thiadiazol-2-yl)-N-(1-methylcyclopropyl)-8-morpholinoimidazo[1,5-a]pyridine-6-sulfonamide], the IC50 on PARG (PARG, TFMU-ADPr substrate) is 4.64 nM; in the test on HCC1806 (Homo sapiens, HCC1806, 168 h) it was 282 nM.
The like results for `CN(C)CC(=O)N1CCN(c2cc(S(=O)(=O)NC3(C#N)CC3)cn3c(-c4nnc(C(F)(F)F)s4)ncc23)CC1` [Example 250, N-(1-cyanocyclopropyl)-8-(4-(dimethylglycyl)piperazin-1-yl)-3-(5-(trifluoromethyl)-1,3,4-thiadiazol-2-yl)imidazo[1,5-a]pyridine-6-sulfonamide] were, in that order, 38 nM and 1280 nM.
With `N#CC1(NS(=O)(=O)c2cc(N3CCN(C(=O)[C@@H]4CCN4)CC3)c3cnc(-c4nnc(C(F)(F)F)s4)n3c2)CC1` [Example 269, (S)-8-(4-(azetidine-2-carbonyl)piperazin-1-yl)-N-(1-cyanocyclopropyl)-3-(5-(trifluoromethyl)-1,3,4-thiadiazol-2-yl)imidazo[1,5-a]pyridine-6-sulfonamide], the IC50 stood at 79.4 nM at PARG (PARG, TFMU-ADPr substrate) and 20000 nM in the test on HCC1806 (Homo sapiens, HCC1806, 168 h).
The like results for `CN1CCC(F)(F)C1C(=O)N1CCN(c2cc(S(=O)(=O)NC3(C)CC3)cn3c(-c4nnc(C(F)(F)F)s4)ncc23)CC1` (stereo not drawn) [Example 351, 8-(4-(3,3-difluoro-1-methylpyrrolidine-2-carbonyl)piperazin-1-yl)-N-(1-methylcyclopropyl)-3-(5-(trifluoromethyl)-1,3,4-thiadiazol-2-yl)imidazo[1,5-a]pyridine-6-sulfonamide] were, in that order, 4.13 nM and 163 nM.
Turning to `COC1(C(=O)N2CCN(c3c(F)c(S(=O)(=O)NC4CC4)cn4c(-c5nnc(C(F)(F)F)s5)ncc34)CC2)CC1` [Example 195, N-cyclopropyl-7-fluoro-8-(4-(1-methoxycyclopropane-1-carbonyl)piperazin-1-yl)-3-(5-(trifluoromethyl)-1,3,4-thiadiazol-2-yl)imidazo[1,5-a]pyridine-6-sulfonamide], the IC50 against PARG (PARG, TFMU-ADPr substrate) amounted to 5.62 nM; with HCC1806 (Homo sapiens, HCC1806, 168 h), 666 nM.
As to `CN(C)C(=O)C1CCN(c2cc(S(=O)(=O)NC3(C#N)CC3)cn3c(-c4nnc(C(F)F)s4)ncc23)CC1` [Example 212, 1-(6-(N-(1-cyanocyclopropyl)sulfamoyl)-3-(5-(difluoromethyl)-1,3,4-thiadiazol-2-yl)imidazo[1,5-a]pyridin-8-yl)-N,N-dimethylpiperidine-4-carboxamide], the IC50 against PARG (PARG, TFMU-ADPr substrate) amounted to 110 nM; in the test on HCC1806 (Homo sapiens, HCC1806, 168 h), 3000 nM.
In the case of `CC1(NS(=O)(=O)c2cc(N3CCN(C(=O)C(O)C(F)(F)F)CC3)c3cnc(-c4nnc(C(F)(F)F)s4)n3c2)CC1` (stereo not drawn) [Example 282, N-(1-methylcyclopropyl)-8-(4-(3,3,3-trifluoro-2-hydroxypropanoyl)piperazin-1-yl)-3-(5-(trifluoromethyl)-1,3,4-thiadiazol-2-yl)imidazo[1,5-a]pyridine-6-sulfonamide], the IC50 against PARG (PARG, TFMU-ADPr substrate) is 20 nM; with HCC1806 (Homo sapiens, HCC1806, 168 h), 84.3 nM.
As to `C[C@@H]1CN(c2cc(S(=O)(=O)NC3(C#N)CC3)cn3c(-c4nnc(C(F)F)s4)cnc23)CCN1C(=O)C1(C)CC1` [Example 204, (R)-N-(1-cyanocyclopropyl)-3-(5-(difluoromethyl)-1,3,4-thiadiazol-2-yl)-8-(3-methyl-4-(1-methylcyclopropane-1-carbonyl)piperazin-1-yl)imidazo[1,2-a]pyridine-6-sulfonamide], the IC50 came out at 36.3 nM on PARG (PARG, TFMU-ADPr substrate) and 360 nM in the test on HCC1806 (Homo sapiens, HCC1806, 168 h).
The like results for `CC1(NS(=O)(=O)c2cc(N3CCNC4(CC4)C3)c3cnc(-c4nnc(C(F)F)s4)n3c2)COC1` [Example 365, 3-(5-(difluoromethyl)-1,3,4-thiadiazol-2-yl)-N-(3-methyloxetan-3-yl)-8-(4,7-diazaspiro[2.5]octan-7-yl)imidazo[1,5-a]pyridine-6-sulfonamide] were, in that order, 8.58 nM and 1070 nM.
For `N#CC1(NS(=O)(=O)c2cc(N3CCN(C(=O)C4(N)CC4)CC3)c3cnc(-c4nnc(C(F)(F)F)s4)n3c2)CC1` [Example 274, 8-(4-(1-aminocyclopropane-1-carbonyl)piperazin-1-yl)-N-(1-cyanocyclopropyl)-3-(5-(trifluoromethyl)-1,3,4-thiadiazol-2-yl)imidazo[1,5-a]pyridine-6-sulfonamide], in that order: 41.7 nM and 700 nM.
Consider `COC1(C(=O)N2CCN(c3cc(S(=O)(=O)NC4(C#N)CC4)cn4c(-c5nnc(C(F)F)s5)ncc34)CC2)CNC1` [Example 289, N-(1-cyanocyclopropyl)-3-(5-(difluoromethyl)-1,3,4-thiadiazol-2-yl)-8-(4-(3-methoxyazetidine-3-carbonyl)piperazin-1-yl)imidazo[1,5-a]pyridine-6-sulfonamide], for which the IC50 against PARG (PARG, TFMU-ADPr substrate) stood at 1.51 nM; in the test with HCC1806 (Homo sapiens, HCC1806, 168 h) it was 6150 nM.
`CC1(NS(=O)(=O)c2cc(N3CCNCC3)c3cnc(-c4nnc(C(F)F)s4)n3c2)CC1` [Example 341, 3-(5-(difluoromethyl)-1,3,4-thiadiazol-2-yl)-N-(1-methylcyclopropyl)-8-(piperazin-1-yl)imidazo[1,5-a]pyridine-6-sulfonamide]: the IC50 came to 2.42 nM on PARG (PARG, TFMU-ADPr substrate) and 139 nM in the test on HCC1806 (Homo sapiens, HCC1806, 168 h).
As for `C[C@H]1CN(c2cc(S(=O)(=O)NC3(C)COC3)cn3c(-c4nnc(C(F)(F)F)s4)ncc23)C[C@H](C)N1` [Example 184, 8-((3S,5S)-3,5-dimethylpiperazin-1-yl)-N-(3-methyloxetan-3-yl)-3-(5-(trifluoromethyl)-1,3,4-thiadiazol-2-yl)imidazo[1,5-a]pyridine-6-sulfonamide], the IC50 against PARG (PARG, TFMU-ADPr substrate) came to 1.15 nM; in the test with HCC1806 (Homo sapiens, HCC1806, 168 h) it was 18 nM.
